Experiments:
[1] = tested on: patients with PD and constipation; assay: Stage 2 CNS symptoms (UPDRS, MMSE, PDHQ, BDI-II); format: in vivo, human; settings: for UPDRS Part 1 (NMS) (Mean, SD) / BDI-II (Mean, SD) / PDHQ (Mean, SD): n = 34; for hallucinations and delusions improved or disappeared: during treatment, patients with hallucinations or delusions at baseline
From the text: (9) Unified Parkinson's Disease Rating Scale (UPDRS), which consists of 42 items in four subscales (Part I=Non-Motor Aspects of Experiences of Daily Living (nM-EDL) (1.1 cognitive impairment, 1.2 hallucinations and psychosis, 1.3 depressed mood, Part II=Motor Aspects of Experiences of Daily Living (M-EDL), Part III=Motor Examination, and Part IV=Motor Complications;
Exploratory end-points, in addition to constipation, included for example, (i) depression assessed using the Beck Depression Inventory (BDI-II) (Steer et al. 2000) and Unified Parkinson's Disease Rating Scale (UPDRS); (ii) cognition assessed using the Mini Mental State Examination (MMSE) (Palsteia et al., 2018), Unified Parkinson's Disease Rating Scale (UPDRS), and Trail Making Test (TMT); (iii) sleep and REM-behavior disorder (RBD) using a daily sleep diary, I-Button Temperature Assessment, a REM sleep behavior disorder (RBD) questionnaire (RBDQ) (Stiasny-Kolster et al. 2007), and the UPDRS; (iv) hallucinations assessed using the PD hallucinations questionnaire (PDHQ) (Papapetropoulos et al. 2008), the UPDRS, and direct questioning; (v) fatigue using the Parkinson's Disease Fatigue Scale (PFS-16) and the UPDRS; (vi) motor functions using the UPDRS; and (vii) non-motor functions using the UPDRS.
(§1) Assessments were made at baseline and at the end of the fixed dose and washout periods. Circadian system status was evaluated by continuously monitoring wrist skin temperature (Thermochron iButton DS1921H; Maxim, Dallas) following published procedures (Sarabia et al. 2008).
An exploratory analysis was done with respect to the sleep data, the body temperature data, mood, fatigue, hallucinations, cognition and other motor and non-motor symptoms of PD. Continuous measurements within a subject were compared with a paired t-test and continuous measurements between subject groups were compared with a two-group t-test. Categorical data were compared with a chi-squared test or a Fisher's exact test if the expected cell counts are too small for a chi-squared test.

[2] = tested on: patients with PD and constipation; assay: Circadian rhythm of wrist skin temperature; format: in vivo, human
Experimental: (6) I-Button Temperature Assessment. The I-Button is a small, rugged self-sufficient system that measures temperature and records the results in a protected memory section. The Thermochron I-Button DS1921H (Maxim Integrated, Dallas, Tex.) was used for skin temperature measurement. I-Buttons were programmed to sample every 10 mins., and attached to a double-sided cotton sport wrist band using Velcro, with the sensor face of the I-Button placed over the inside of the wrist, on the radial artery of the dominant hand. Subjects removed and replaced the data logger when necessary (i.e., to have a bath or shower). The value of skin temperature assessment in sleep research is that the endogenous skin warming resulting from increased skin blood flow is functionally linked to sleep propensity. From the collected data, the mesor, amplitude, acrophase (time of peak temperature), Rayleight test (an index of interdaily stability), mean waveforms are calculated);
as §1
Circadian rhythm of skin temperature was evaluable in 12 patients (i.e., those who had recordings that extended from baseline through washout). Circadian system functionality was evaluated by continuously monitoring wrist skin temperature using a temperature sensor (Thermochron iButton DS1921H; Maxim, Dallas, Tex.) (Sarabia et al. 2008). A nonparametric analysis was performed for each participant to characterize DST as previously described (Sarabia et al. 2008; Ortiz-Tudela et al. 2010).
Briefly, this analysis includes the following parameters: (i) the inter-daily stability (the constancy of 24-hour rhythmic pattern over days, IS); (ii) intra-daily variability (rhythm fragmentation, IV); (iii) average of 10-minute intervals for the 10 hours with the minimum temperature (L10); (iv) average of 10-minute intervals for the 5 hours with the maximum temperature (M5) and the relative amplitude (RA), which was determined by the difference between M5 and L10, divided by the sum of both. Finally, the Circadian Function Index (CFI) was calculated by integrating IS, IV, and RA. Consequently, CFI is a global measure that oscillates between 0 for the absence of circadian rhythmicity and 1 for a robust circadian rhythm (Ortiz-Tudela et al., 2010).

[3] = Stage 2, fixed dose (during treatment)
[4] = Stage 2, fixed dose (during treatment), listed as Squalamine (ENT-01)
[5] = Stage 2, wash-out, listed as Squalamine (ENT-01)
[6] = fixed dose vs baseline, 12 patients

## CC(C)[C@@H](CC[C@@H](C)[C@H]1CC[C@H]2[C@@H]3[C@H](O)C[C@H]4C[C@@H](NCCCNCCCCN)CC[C@]4(C)[C@H]3CC[C@]12C)OS(=O)(=O)O (single isomer, unassigned) [squalamine (ENT-01), squalamine]
[1]; 1 patient
  time hallucinations and delusions did not return following discontinuation: 4 weeks
[1]; Stage 2, end of fixed dose
  UPDRS Part 1 (NMS) (Mean, SD): 10.6 (6.18))
[1]; Stage 2, end of wash-out
  UPDRS Part 1 (NMS) (Mean, SD): 9.5 (5.27)
[1]; Stage 2, end of wash-out, listed as aminosterol
  UPDRS Part 1 (NMS) (Mean, SD): 9.5
[1]; [3]
  BDI-II (Mean, SD): 9.9
  PDHQ (Mean, SD): 1.8
[1]; [4]
  BDI-II (Mean, SD): 9.9 (6.45)
  PDHQ (Mean, SD): 1.8 (3.34)
[1]; Stage 2, fixed dose (during treatment), listed as aminosterol
  BDI-II (Mean, SD): 9.9
[1]; Stage 2, wash-out
  BDI-II (Mean, SD): 8.7
  PDHQ (Mean, SD): 0.9
[1]; [5]
  BDI-II (Mean, SD): 8.7 (5.19)
  PDHQ (Mean, SD): 0.9 (2.33)
[1]; Stage 2, wash-out, listed as aminosterol
  BDI-II (Mean, SD): 8.7
[1]; another patient
  time hallucinations and delusions did not return following discontinuation: 2 weeks
[1]
  hallucinations and delusions improved or disappeared: 5 of 6
[1]; listed as ENT-01
  hallucinations and delusions improved or disappeared: five
[2]; [6]
  circadian function index (CFI): increasing
  relative amplitude (RA): increasing
  rhythm fragmentation (intra-daily variability, IV): reducing
  rhythm stability (inter-daily stability, IS): increasing
[2]; oral administration, 12 patients with evaluable data
  impact on the circadian rhythm of skin temperature: significant positive impact
[2]; wash-out period, 12 patients
  circadian function index (CFI): improvement persisted
  rhythm stability (IS): improvement persisted
